Patent publication US6784184B2, “5-(arylsulfonyl)-,5-(arylsulfinyl), and 5-(arylsulfanyl)-thiazolidine-2,4-diones useful for inhibition of farnesyl-protein transferase” (Wyeth Holdings Corporation, priority 2001, dated 2004)

What was measured:
[1] = target: FPTase (H-Ras substrate) (UniProt P29702+P49355); assay: in vitro FTase Inhibition Assay, H-Ras as substrate for farnesylation; format: biochemical; settings: H-Ras used as substrate for farnesylation
Experimental: (§1) The ability of the compounds of this invention to inhibit FPTase was evaluated in the standard pharmacological in vitro test procedures described below.
(§2) Methods—1. […] 2. Solution #1 is added to FPTase reaction in a volume of […]. 3. Standard reaction mix, […], contains 50 mM Tris (7.5), […], 3 mM MgCl2, 20 mM KCl, 5 mM DTT, 0.2% octyl-B-glucoside, 1% DMSO, […], 10 ng FPTase, and various concentrations of FPTase inhibitors. 4. Incubate for 30-90 min at […] 5. Stop reactions with TCA/SDS (6%/2%), hold at 4° C. for 45-60 min. 6. Filter by manifold or 96 well plate, wash filter 3-5× with TCA (6%). 7. Add scintillant to filters, measure ^3H-FPP incorporation into Ras protein.
(§3) (cpm from precipitated Ras with test compounds)−(background cpm)×100=% inhibition.
(§4) (cpm from precipitated Ras without test compounds)−(background cpm)

[2] = target: FPTase (K-Ras substrate) (UniProt P29702+P49355); assay: in vitro FTase Inhibition Assay, K-Ras as substrate for farnesylation; format: biochemical; settings: K-Ras used as substrate for farnesylation
Experimental: as §1, §2, §3, §4

SMILES | IC50 [1] [nM] | IC50 [2] [nM]
Cc1cc(Br)ccc1C#CCCCC1(S(=O)(=O)c2ccc(I)cc2)SC(=O)NC1=O (stereo not drawn) [Example 144, 5-[5-(4-Bromo-2-methylphenyl)pent-4-ynyl]-5-(4-iodobenzenesulfonyl)-thiazolidine-2,4-dione] | 40 to 41 | 320 to 550
COc1ccc(S(=O)(=O)C2(CCCC#Cc3cc(NC(=O)OCC(C)(C)C)ccc3C)SC(=O)N(C(=O)OCC(C)(C)C)C2=O)cc1 (stereo not drawn) [Example 230, Neopentyl 5-[(4-methoxyphenyl)sulfonyl]-5-[5-(2-methyl-5-{[(neopentyloxy)carbonyl]-amino}phenyl)pent-4-ynyl]-2,4-dioxo-1,3-thiazolidine-3-carboxylate] | 3 to 3.5 | 20 to 500
Cc1ccc(C(=O)NC(C)(C)C)cc1C#CCCCC1(S(=O)(=O)c2ccc(I)cc2)SC(=O)NC1=O (stereo not drawn) [Example 147, N-tert-Butyl-3-{5-[5-(4-iodo-benzenesulfonyl)-2,4-dioxothiazol-idin-5-yl]-pent-1-ynyl}-4-methylbenzamide] | 6.8 to 210 | 80 to 100
COc1ccc(S(=O)(=O)C2(CCCC#Cc3cc(NC(=O)Nc4ccc(Cl)cc4)ccc3C)SC(=O)NC2=O)cc1 (stereo not drawn) [Example 189, N-(4-Chlorophenyl)-N′-[3-(5-{5-[(4-methoxy-phenyl)sulfonyl]-2,4-dioxo-1,3-thiazolidin-5-yl}-1-pentynyl)-4-methylphenyl]urea] | 100 | 1200
Cc1ccc(S(=O)(=O)C2(CCCC#Cc3ccc(Cl)cc3)SC(=O)NC2=O)cc1 (stereo not drawn) [Example 103, 5-[5-(4-Chlorophenyl)pent-4-ynyl]-5-(p-tolylsulfonyl)-thiazolidine-2,4-dione] | 30 to 50 | 900 to 10000
CC(=O)Nc1ccc(S(=O)(=O)C2(CCCC#Cc3ccc(Cl)cc3)SC(=O)NC2=O)cc1 (stereo not drawn) [Example 108, N-(4-{5-[5-(4-Chlorophenyl)pent-4-ynyl]-2,4-dioxothiazolidine-5-sulfonyl}phenyl)acetamide] | 130 to 180 | ≥ 9000
COc1ccc(S(=O)(=O)C2(CCCC#Cc3cc(NC(=O)OCc4ccccc4)ccc3C)SC(=O)N(C(=O)OCc3ccccc3)C2=O)cc1 (stereo not drawn) [Example 226, Benzyl 5-[5-(5-{[(benzyloxy)carbonyl]-amino}-2-methylphenyl)pent-4-ynyl]-5-[(4-methoxyphenyl)sulfonyl]-2,4-dioxo-1,3-thiazolidine-3-carboxylate] | 30 to 50 | 100 to 3200
O=C1NC(=O)C(CCCC#Cc2ccc(Cl)cc2)(S(=O)(=O)c2cccc3ccccc23)S1 (stereo not drawn) [Example 113, 5-[5-(4-Chlorophenyl)pent-4-ynyl]-5-(naphthalene-1-sulfonyl)-thiazolidine-2,4-dione] | 50 to 60 | 750 to 800
COc1ccc(S(=O)(=O)C2(CCCC#Cc3cccs3)SC(=O)NC2=O)cc1 (stereo not drawn) [Example 166, 5-(4-Methoxybenzenesulfonyl)-5-(5-thiophen-2-yl-pent-4-ynyl)-thiazolidine-2,4-dione] | 150 | 5300
COc1ccc(S(=O)(=O)C2(CCCC#Cc3cc(NC(=O)OC(C)(C)C)ccc3C)SC(=O)NC2=O)cc1 (stereo not drawn) [Example 150, (3-{5-[5-(4-Methoxybenzenesulfonyl)-2,4-dioxothiazolidin-5-yl]pent-1-ynyl}-4-methylphenyl)carbamic Acid tert-Butyl Ester] | 7.4 to 32 | 16 to 68
COc1ccc(S(=O)(=O)C2(CCCC#Cc3ccc(Cl)cc3C)SC(=O)NC2=O)cc1 (stereo not drawn) [Example 142, 5-[5-(4-Chloro-2-methylphenyl)pent-4-ynyl]-5-(4-methoxybenzene-sulfonyl)-thiazolidine-2,4-dione] | 17 to 30 | 40 to 1000
Cc1ccc([N+](=O)[O-])cc1C#CCCCC1(S(=O)(=O)c2ccc(Oc3ccccc3)cc2)SC(=O)NC1=O (stereo not drawn) [Example 124] | 52 to 80 | 910 to 1300
COc1ccc(S(=O)(=O)C2(CC#Cc3cccnc3)SC(=O)NC2=O)cc1 (stereo not drawn) [Example 167, 5-(4-Methoxybenzenesulfonyl)-5-(3-pyridin-3-ylprop-2-ynyl)-thiazolidine-2,4-dione] | 1500 | –
Cc1ccc(NC(=O)OC(C)(C)C)cc1C#CCCCC1(S(=O)(=O)c2ccc(I)cc2)SC(=O)NC1=O (stereo not drawn) [Example 148, (3-{5-[5-(4-Iodobenzenesulfonyl)-2,4-dioxothiazolidin-5-yl]-pent-1-ynyl}-4-methylphenyl)carbamic Acid tert-Butyl Ester] | 4.5 to 120 | 23 to 31
COc1ccc(S(=O)(=O)C2(CCCC#Cc3cc(NC(=O)OC(C)(C)C)ccc3C)SC(=O)NC2=O)cc1 (single isomer, unassigned; less polar) [Example 222, Enantiomer of(3-{5-[5-(4-Methoxybenzenesulfonyl)-2,4-dioxothiazolidin-5-yl]pent-1-ynyl}-4-methylphenyl)carbamic Acid tert-Butyl Ester (less polar)] | 3.3 | 33
COc1ccc(S(=O)(=O)C2(CCCC#Cc3ccc([N+](=O)[O-])cc3OC)SC(=O)NC2=O)cc1 (stereo not drawn) [Example 132, 5-(4-Methoxybenzenesulfonyl)-5-[5-(2-methoxy-4-nitrophenyl)pent-4-ynyl]-thiazolidine-2,4-dione] | 41 to 73 | 210 to 1000
Cc1ccc(S(=O)(=O)C2(CC#Cc3cccs3)SC(=O)NC2=O)cc1 (stereo not drawn) [Example 168, 5-(3-Thiophen-2-yl-prop-2-ynyl)-5-(toluene-4-sulfonyl)-thiazolidine-2,4-dione] | 280 | –
O=C1NC(=O)C(CCCC#Cc2ccc(Cl)cc2)(Sc2ccc(F)cc2)S1 (stereo not drawn) [Example 96, 5-[5-(4-Chlorophenyl)pent-4-ynyl]-5-(4-fluorophenylsulfanyl)-thiazolidine-2,4-dione] | 700 | –
O=C1NC(=O)C(CCCC#Cc2ccc(-n3cccc3)cc2)(S(=O)(=O)c2ccc(OC(F)(F)F)cc2)S1 (stereo not drawn) [Example 163, 5-[5-(4-Pyrrol-1-ylphenyl)pent-4-ynyl]-5-(4-trifluoromethoxybenzenesulfonyl)-thiazolidine-2,4-dione] | 1300 | –

Now from value to molecule:

IC50 [1] [nM] | IC50 [2] [nM] | SMILES
110 to 150 | 300 to 550 | O=C1NC(=O)C(CCCC#Cc2ccc(Cl)cc2)(S(=O)(=O)c2ccc(OCc3ccccc3)cc2)S1 (stereo not drawn) [Example 111, 5-(4-Benzyloxybenzenesulfonyl)-5-[5-(4-chlorophenyl)pent-4-ynyl]-thiazolidine-2,4-dione]
3.2 to 32 | 30 to 320 | COc1ccc(S(=O)(=O)C2(CCCC#Cc3cc(NC(=O)OCc4ccc([N+](=O)[O-])cc4)ccc3C)SC(=O)NC2=O)cc1 (stereo not drawn) [Example 176, (3-{5-[5-(4-Methoxybenzenesulfonyl)-2,4-dioxothiazolidin-5-yl]pent-1-ynyl}-4-methylphenyl)carbamic Acid 4-Nitro-Benzyl Ester]
30 to 54 | 230 to 900 | O=C1NC(=O)C(CCCC#Cc2ccc(Cl)cc2)(S(=O)(=O)c2ccc(I)cc2)S1 (stereo not drawn) [Example 104, 5-[5-(4-Chlorophenyl)pent-4-ynyl]-5-(4-iodobenzenesulfonyl)-thiazolidine-2,4-dione]
180 to 200 | 620 to 700 | O=C1NC(=O)C(CCCC#Cc2ccc(Cl)cc2)(S(=O)(=O)c2ccc3ccccc3c2)S1 (stereo not drawn) [Example 107, 5-[5-(4-Chlorophenyl)pent-4-ynyl]-5-(naphthalene-2-sulfonyl)-thiazolidine-2,4-dione]
10 to 32 | 100 to 130 | CCCCOC(=O)Nc1ccc(C)c(C#CCCCC2(S(=O)(=O)c3ccc(OC)cc3)SC(=O)NC2=O)c1 (stereo not drawn) [Example 181, (3-{5-[5-(4-Methoxybenzenesulfonyl)-2,4-dioxothiazolidin-5-yl]pent-1-ynyl}-4-methylphenyl)carbamic Acid Butyl Ester]
50 to 150 | 1500 to 1700 | O=C1NC(=O)C(CCCC#Cc2ccc(Cl)cc2)(S(=O)(=O)c2ccc(F)cc2)S1 (stereo not drawn) [Example 105, 5-[5-(4-Chlorophenyl)pent-4-ynyl]-5-(4-fluorobenzenesulfonyl)-thiazolidine-2,4-dione]
90 | 3000 | COc1ccc(S(=O)(=O)C2(CCCC#Cc3cccc(N)c3)SC(=O)NC2=O)cc1 (stereo not drawn) [Example 220, 5-[5-(3-Aminophenyl)pent-4-ynyl]-5-(4-methoxybenzenesulfonyl)-thiazolidine-2,4-dione]
17 to 32 | 10 | COC(=O)Nc1ccc(C)c(C#CCCCC2(S(=O)(=O)c3ccc(OC)cc3)SC(=O)NC2=O)c1 (stereo not drawn) [Example 178, (3-{5-[5-(4-Methoxybenzenesulfonyl)-2,4-dioxothiazolidin-5-yl]pent-1-ynyl}-4-methylphenyl)carbamic Acid Methyl Ester]
270 | 5000 | Cc1ccc(S(=O)(=O)C2(CCCC#Cc3ccc(C(C)(C)C)cc3)SC(=O)NC2=O)cc1 (stereo not drawn) [Example 157, 5-[5-(4-tert-Butylphenyl)pent-4-ynyl]-5-(toluene-4-sulfonyl)-thiazolidine-2,4-dione]
2900 | – | COc1ccc(S(=O)(=O)C2(CCCC#Cc3ccc(Cl)cc3)SC(=O)N(CCCn3ccnc3)C2=O)cc1 (stereo not drawn) [Example 233, 5-[5-(4-Chlorophenyl)pent-4-ynyl]-3-(3-imidazol-1-yl-propyl)-5-(4-methoxybenzenesulfonyl)-thiazolidine-2,4-dione]
900 | – | COc1ccc(S(=O)(=O)C2(CCCC#Cc3ccc(-n4cccc4)cc3)SC(=O)NC2=O)cc1 (stereo not drawn) [Example 161, 5-(4-Methoxybenzenesulfonyl)-5-[5-(4-pyrrol-1-yl-phenyl)pent-4-ynyl]-thiazolidine-2,4-dione]
